Results on two molecules are retold here after PubChem BioAssay AID1505 (Sanford-Burnham Center for Chemical Genomics, 2009).

One may read the MIC as the least concentration at which growth counts as inhibited.

≈ marks a conversion by molar mass, not a printed value. Calls of active or inactive are those of the source. How the calls were made is not given here.

In the experiment the test system is Y. pseudotuberculosis YP126 growth, MIC at 37 C. Nature of the experiment: Y. pseudotuberculosis growth inhibition MIC, strain YP126, 22/37/40 C (AID 1505).

In the case of `O=C(Nc1ccc2[nH]ccc2c1)c1cccs1`, the MIC was 400 µM (inactive) (≈ 96.9 µg/mL). Besides, the MIC (measured here: MIC at 22 C) is 400 µM (≈ 96.9 µg/mL). The molecule also showed an MIC (measured here: MIC at 40 C) of 400 µM (≈ 96.9 µg/mL).

`Cc1ccc(CNC(=O)c2ccc([N+](=O)[O-])o2)cc1`: the MIC was 25 µM (≈ 6.51 µg/mL). The molecule also registered an MIC (measured here: MIC at 22 C) of 400 µM (≈ 104 µg/mL). This molecule gave an MIC (measured here: MIC at 40 C) of less than 12 µM.
